Experimental data from patent publication US5521156A, “Cyclic neurokinin A antagonists” (priority 1994, dated 1996).
Where a SMILES comes first, the peptide text is derived from it. [ ]: non-standard residue; d: D form. Phe(4-NO2) = N[C@@H](Cc1ccc([N+](=O)[O-])cc1)C(=O)O; Phe(4-Cl) = N[C@@H](Cc1ccc(Cl)cc1)C(=O)O; Phe(4-NH2) = Nc1ccc(C[C@H](N)C(=O)O)cc1

Legend:
[1] = target: T1, human jejunal NK-2 receptor (Homo sapiens, UniProt P21452); assay: NK-2 receptor binding (125I-neurokinin A) in HSKR-1 cell membranes; conditions: HSKR-1 cells (mouse 3T3 fibroblasts expressing human jejunal NK-2 receptor); 0.1 nM 125I-iodohistidyl-1-neurokinin A; mean ± S.E.M.
T1 construct: expressed in transfected cells; host or cells: HSKR-1 (mouse 3T3 fibroblasts)
T1 sequence (P21452 1-398): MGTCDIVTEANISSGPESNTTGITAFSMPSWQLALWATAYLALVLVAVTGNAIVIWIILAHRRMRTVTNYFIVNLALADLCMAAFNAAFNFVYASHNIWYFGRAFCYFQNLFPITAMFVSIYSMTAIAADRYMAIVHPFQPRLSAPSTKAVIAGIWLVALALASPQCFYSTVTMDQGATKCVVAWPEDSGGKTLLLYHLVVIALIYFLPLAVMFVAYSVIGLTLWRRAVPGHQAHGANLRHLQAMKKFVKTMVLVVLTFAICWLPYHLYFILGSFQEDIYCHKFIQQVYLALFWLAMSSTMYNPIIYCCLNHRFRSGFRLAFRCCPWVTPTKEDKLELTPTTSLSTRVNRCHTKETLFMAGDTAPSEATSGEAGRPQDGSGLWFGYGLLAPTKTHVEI
Method: (§1) Receptor binding assays were performed in crude tissue membranes. The NK-1 receptor binding affinity of proposed tachykinin antagonists was evaluated in guinea pig lungs (Keystone Biologicals, Cleveland, OH, kept frozen at -80° C. until use). Affinity for the NK-2 receptor was evaluated in HSKR-1 cells which are mouse 3T3 fibroblasts expressing the human jejunal NK-2 receptor. Tissues or cells were homogenized with a Polytron in 15 volumes of 50 mM Tris-HCl buffer (pH 7.4, 4° C.) containing 120 mM NaCl and 5 mM KCl and centrifuged at 48,000×g for 12 min. at 4° C. The pellet was resuspended in 15 volumes of 50 mM Tris-HCl buffer containing 10 mM EDTA and 300 mM KCl then set on ice for 30 min. The suspension was cetrifuged as above and the pellet washed by resuspension and cetrifugation two additional times in 50 mM Tris-HCl buffer (pH 7.4, 4° C.). The final pellet was resuspended in a concentration of 20 mg/ml in incubation buffer then kept at room temperature for at least 15 min prior to use. Receptor binding was initiated by addition of 250 μl membrane preparation (final protein concentration; lungs=286 μg/tube, HSKR-1 cells=100 μg/tube) in duplicate to 0.1 nM of the following radioligands: for NK-1 receptor assays, ^125 I-Bolton-Hunter Lys-3 labeled substance P (New England Nuclear, specific activity, 2200 Ci/mmol); for NK-2 receptor assays, ^125 iodohistidyl-1-neurokinin A (Amersham, specific activity, 2000 Ci/mmol) in a final volume of 500 μl of buffer containing 50 mM Tris-HCl (pH 7.4 at room temperature), 0.1% bovine serum albumin, 2 mM MnCl2, 40 μg/ml bacitracin, 4 μg/ml leupeptin and chymostatin, 1 μM thiorphan and various doses of the tachykinin antagonists. Incubations were performed at room temperature for 90 min (NK-1 receptor assays) or 2 hr (NK-2 receptor assays); binding was terminated by addition of 50 mM Tris-HCl buffer (pH 7.4, 4° C.) and filtration under vacuum through GF/B filters presoaked with 0.1% polyethyleneimine (NK-1 receptor assays) or 0.5% bovine serum albumin (NK-2 receptor assays). Nonspecific binding was defined as binding in the presence of 1 μM substance P (NK-1 receptor assays) or neurokinin A (NK-2 receptor assays) (Peptides International, Inc., Louisville, Ky.). Specific binding was calculated by subtracting nonspecific binding from total binding and corresponded to 70-90% of total binding. Data were analyzed and IC50 values generated by nonlinear regression using an iterative curve fitting program (GraphPAD Inplot, San Diego, Calif.). Protein was determined by the method of Lowry.

NK-1 receptor = target: T2, NK-1 receptor (Cavia porcellus, UniProt P30547); assay: NK-1 receptor binding (125I-Bolton-Hunter substance P) in guinea pig lung membranes; conditions: 0.1 nM 125I-Bolton-Hunter Lys-3 substance P, mean ± S.E.M.
T2 construct: tissue Keystone Biologicals, Cleveland, OH; host or cells: guinea pig lung
T2 sequence (P30547 whole entry): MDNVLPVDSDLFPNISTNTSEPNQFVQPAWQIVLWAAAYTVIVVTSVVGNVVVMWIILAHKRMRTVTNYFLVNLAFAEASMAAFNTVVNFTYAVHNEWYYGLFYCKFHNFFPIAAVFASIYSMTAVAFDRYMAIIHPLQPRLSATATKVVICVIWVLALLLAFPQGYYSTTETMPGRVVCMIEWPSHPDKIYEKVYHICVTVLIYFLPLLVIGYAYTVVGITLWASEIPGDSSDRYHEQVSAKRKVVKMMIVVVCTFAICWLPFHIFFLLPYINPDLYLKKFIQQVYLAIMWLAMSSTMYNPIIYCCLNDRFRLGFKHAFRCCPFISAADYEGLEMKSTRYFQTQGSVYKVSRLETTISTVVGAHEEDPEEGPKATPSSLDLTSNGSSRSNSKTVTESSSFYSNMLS
Method: as §1

IC50 [1] [nM]	IC50 (NK-1 receptor) [nM]	Structure (SMILES)
768 ± 75	–	CC(C)C[C@@H]1NC(=O)CNC(=O)[C@H](Cc2c[nH]c3ccccc23)NC(=O)[C@H](CCCNC(=N)N)NC(=O)[C@H](CC(C)C)NC(=O)CNC(=O)[C@H](Cc2c[nH]c3ccccc23)NC(=O)[C@H](CCCNC(=N)N)NC1=O [cyclo[Leu-Arg-Trp-Gly-Leu-Arg-Trp-Gly]] (cyclo(GLRWGLRW))
674 ± 57	9310 ± 2070	N=C(N)NCCC[C@@H]1NC(=O)[C@@H]2CCCN2C(=O)[C@@H](Cc2ccccc2)NC(=O)[C@H](Cc2ccccc2)NC(=O)CNC(=O)[C@H](Cc2ccccc2)NC1=O [cyclo[Phe--phe--Pro--Arg--Phe--Gly], cyclo[Phe-phe-Pro-Arg-Phe-Gly]] (cyclo(FGF[dF]PR))
4.7 ± 0.15	4830 ± 297	CC(C)C[C@@H]1NC(=O)[C@@H](Cc2c[nH]c3ccccc23)NC(=O)[C@H](Cc2c[nH]c3ccccc23)NC(=O)CNC(=O)[C@H](Cc2c[nH]c3ccccc23)NC(=O)[C@H](CCCNC(=N)N)NC1=O [cyclo[Trp--trp--Leu--Arg--Trp--Gly], cyclo[Trp-trp-Leu-Arg-Trp-Gly]] (cyclo(GW[dW]LRW))
305 ± 31	10000	CC(C)C[C@@H]1NC(=O)[C@H](Cc2c[nH]c3ccccc23)NC(=O)[C@H](Cc2ccc(O)cc2)NC(=O)CNC(=O)[C@H](Cc2c[nH]c3ccccc23)NC(=O)[C@H](CCCNC(=N)N)NC1=O [cyclo[Tyr--Trp--Leu--Arg--Trp--Gly]] (cyclo(GYWLRW))
56.7 ± 5.45	–	C[C@@H]1NC(=O)[C@@H](Cc2c[nH]c3ccccc23)NC(=O)[C@H](Cc2ccc(O)cc2)NC(=O)CNC(=O)[C@H](Cc2c[nH]c3ccccc23)NC(=O)[C@H](CCCNC(=N)N)NC1=O [cyclo[Tyr--trp--Ala--Arg--Trp--Gly], cyclo[Tyr-trp-Ala-Arg-Trp-Gly]] (cyclo(ARWGY[dW]))
360 ± 21	–	CC(C)C[C@@H]1NC(=O)[C@@H](Cc2c[nH]c3ccccc23)NC(=O)[C@H](Cc2ccc(O)cc2)NC(=O)[C@H](Cc2c[nH]c3ccccc23)NC(=O)CNC(=O)[C@H](CCCNC(=N)N)NC1=O [cyclo[Tyr--trp--Leu--Arg--Gly--Trp], cyclo[Tyr-trp-Leu-Arg-Gly-Trp]] (cyclo(GWY[dW]LR))
9.9 ± 0.9	–	CC(C)C[C@@H]1NC(=O)[C@@H](Cc2c[nH]c3ccccc23)NC(=O)[C@H](Cc2ccc(O)cc2)NC(=O)[C@H](C)NC(=O)[C@H](Cc2c[nH]c3ccccc23)NC(=O)[C@H](CCCNC(=N)N)NC1=O [cyclo[Tyr--trp--Leu--Arg--Trp--Ala], cyclo[Tyr-trp-Leu-Arg-Trp-Ala]] (cyclo(AY[dW]LRW))
30 ± 2.52	5170 ± 507	CC(C)C[C@@H]1NC(=O)[C@@H](Cc2c[nH]c3ccccc23)NC(=O)[C@H](Cc2ccc(O)cc2)NC(=O)[C@@H]2CCCN2C(=O)[C@H](Cc2c[nH]c3ccccc23)NC(=O)[C@H](CCCNC(=N)N)NC1=O [cyclo[Tyr--trp--Leu--Arg--Trp--Pro], cyclo[Tyr-trp-Leu-Arg-Trp-Pro]] (cyclo(LRWPY[dW]))
7.99 ± 1.02	–	CC(C)C[C@@H]1NC(=O)[C@@H](Cc2c[nH]c3ccccc23)NC(=O)[C@H](Cc2ccc(O)cc2)NC(=O)[C@@H](C)NC(=O)[C@H](Cc2c[nH]c3ccccc23)NC(=O)[C@H](CCCNC(=N)N)NC1=O [cyclo[Tyr--trp--Leu--Arg--Trp--ala]] (cyclo(LRW[dA]Y[dW]))
206 ± 15	–	CC(C)C[C@@H]1NC(=O)[C@@H](Cc2c[nH]c3ccccc23)NC(=O)[C@H](Cc2ccc(O)cc2)NC(=O)[C@H](C)NC(=O)[C@H](Cc2ccc(O)cc2)NC(=O)[C@H](CCCNC(=N)N)NC1=O [cyclo[Tyr--trp--Leu--Arg--Tyr--Ala], cyclo[Tyr-trp-Leu-Arg-Tyr-Ala]] (cyclo(AY[dW]LRY))
18.9 ± 1.58	> 10000	CC(C)C[C@@H]1NC(=O)[C@@H](Cc2c[nH]c3ccccc23)NC(=O)[C@H](Cc2ccc(O)cc2)NC(=O)CNC(=O)[C@H](Cc2ccc(O)cc2)NC(=O)[C@H](CCCNC(=N)N)NC1=O [cyclo[Tyr--trp--Leu--Arg--Tyr--Gly], cyclo[Tyr-trp-Leu-Arg-Tyr-Gly]] (cyclo(GY[dW]LRY))
193 ± 11.5	> 10000	CC(C)C[C@@H]1NC(=O)[C@@H](Cc2c[nH]c3ccccc23)NC(=O)[C@H](Cc2ccc(O)cc2)NC(=O)CNC(=O)[C@@H](Cc2c[nH]c3ccccc23)NC(=O)[C@H](CCCNC(=N)N)NC1=O [cyclo[Tyr--trp--Leu--Arg--trp--Gly]] (cyclo(GY[dW]LR[dW]))
5.13 ± 0.36	> 10000	N=C(N)NCCC[C@@H]1NC(=O)[C@@H]2CCCN2C(=O)[C@@H](Cc2c[nH]c3ccccc23)NC(=O)[C@H](Cc2ccc(O)cc2)NC(=O)CNC(=O)[C@H](Cc2c[nH]c3ccccc23)NC1=O [cyclo[Tyr--trp--Pro--Arg--Trp--Gly], cyclo[Tyr-trp-Pro-Arg-Trp-Gly]] (cyclo(GY[dW]PRW))
13.3 ± 1.31	~10000	CC(C)C[C@@H]1NC(=O)[C@@H](Cc2c[nH]c3ccccc23)NC(=O)[C@H](Cc2ccc(O)cc2)NC(=O)CNC(=O)[C@H](Cc2ccc(Cl)cc2)NC(=O)[C@H](CCCNC(=N)N)NC1=O [cyclo[Tyr-trp-Leu-Arg-(p-Cl-Phe)-Gly]] (cyclo(GY[dW]LR[Phe(4-Cl)]))
20.2 ± 2.03	> 10000	CC(C)C[C@@H]1NC(=O)[C@@H](Cc2c[nH]c3ccccc23)NC(=O)[C@H](Cc2ccc(O)cc2)NC(=O)CNC(=O)[C@H](Cc2ccc(N)cc2)NC(=O)[C@H](CCCNC(=N)N)NC1=O [cyclo[Tyr-trp-Leu-Arg-(p-NH2 -Phe)-Gly]] (cyclo(GY[dW]LR[Phe(4-NH2)]))
11.7 ± 0.44	> 10000	CC(C)C[C@@H]1NC(=O)[C@@H](Cc2c[nH]c3ccccc23)NC(=O)[C@H](Cc2ccc(O)cc2)NC(=O)CNC(=O)[C@H](Cc2ccc([N+](=O)[O-])cc2)NC(=O)[C@H](CCCNC(=N)N)NC1=O [cyclo[Tyr-trp-Leu-Arg-(p-NO2 -Phe)-Gly]] (cyclo(GY[dW]LR[Phe(4-NO2)]))
407 ± 52	–	CC(C)C[C@@H]1NC(=O)[C@H](CCC(N)=O)NC(=O)[C@@H](Cc2ccc(O)cc2)NC(=O)CNC(=O)[C@H](Cc2c[nH]c3ccccc23)NC(=O)[C@H](CCCNC(=N)N)NC1=O [cyclo[tyr--Gln--Leu--Arg--Trp--Gly], cyclo[tyr-Gln-Leu-Arg-Trp-Gly]] (cyclo(G[dY]QLRW))
4.97 ± 0.42	> 10000	CC(C)C[C@@H]1NC(=O)[C@@H](Cc2c[nH]c3ccccc23)NC(=O)[C@@H](Cc2ccc(O)cc2)NC(=O)CNC(=O)[C@H](Cc2c[nH]c3ccccc23)NC(=O)[C@H](CCCNC(=N)N)NC1=O [cyclo[tyr--trp--Leu--Arg--Trp--Gly]] (cyclo(G[dY][dW]LRW))
